Reference: ChEMBL document CHEMBL2331473, “Two-component covalent inhibitor” (Bioorg Med Chem, 2013)
Calls of active or inactive are those of the source. The calls are words filed in the database; no cut-off is given here.

What was measured:
[1] = test system: Tequatrovirus T4; assay: Inhibition of Enterobacteria phage T4 DNA polymerase using biotin-labeled oligonucleotide hairpin substrate containing pre-reactive group at 3'-end assessed as loss of hairpin substrate elongation product at 10 uM incubated for 15 mins in presence of 4000 fold-excess of non-specific T7 RNA polymerase by PAGE method and filter binding assay
[2] = test system: Tequatrovirus T4; assay: Inhibition of Enterobacteria phage T4 DNA polymerase using biotin-labeled oligonucleotide hairpin substrate containing pre-reactive group at 3'-end assessed as loss of hairpin substrate elongation product at 10 uM incubated for 15 mins by PAGE method and filter binding assay

- inhibition [1]: Active
- inhibition [2]: 87%
SMILES: O=C(CCCc1ccc2ccc3cccc4ccc1c2c34)NC/C=C/c1cn([C@H]2C[C@H](O)[C@@H](COP(=O)(O)OP(=O)(O)OP(=O)(O)O)O2)c(=O)[nH]c1=O
